# Experiments:
# Conditions in all cases: 72 h
# [1] = test system: THP-1
# Procedure, shortened: (§1)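 In 384-well plates holding acoustically pre-printed compounds at five tenfold doses from 1 to 10,000 nM, in duplicate, fifteen myeloid leukaemia cell lines were grown in RPMI 1640 for 72 h at 37 °C with 5% CO2. Luminescent ATP viability was scaled between vehicle and a positive control at 10 µM. The IC50 was then taken from log-logistic dose–response fits with four parameters.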
# [2] = test system: LAMA-84
# Procedure, shortened: as §1
# [3] = test system: SHI-1
# Procedure, shortened: as §1
# [4] = test system: BV-173
# Procedure, shortened: as §1
# [5] = test system: HL-60
# Procedure, shortened: as §1
# [6] = test system: HEL
# Procedure, shortened: as §1
# [7] = test system: MOLM-13
# Procedure, shortened: as §1
# [8] = test system: Mono-Mac-6
# Procedure, shortened: as §1
# [9] = test system: MV4-11
# Procedure, shortened: as §1
# [10] = test system: KCL-22
# Procedure, shortened: as §1
# [11] = test system: NOMO-1
# Procedure, shortened: as §1
# [12] = test system: KU-812
# Procedure, shortened: as §1
# [13] = test system: ML-2
# Procedure, shortened: as §1
# [14] = test system: K-562
# Procedure, shortened: as §1
# [15] = test system: KG-1
# Procedure, shortened: as §1
# [16] = test system: HL-60; assay: area under dose-response curve (viability, 1 nM-10 uM) (fraction (0-1)); higher = more sensitive
# Procedure, shortened: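 Area under the curve, where listed, was derived from four-parameter log-logistic fits with drc and PharmacoGx. These fits used CellTiter-Glo viability from HL-60 cells in RPMI 1640 with 10% FBS, normalised to DMSO wells and wells holding 10 μM proteasome inhibitor. The full library was rescreened on 384-well plates in duplicate at five tenfold concentrations, 1–10,000 nM, with DMSO or 100 nM of one of three metabolic inhibitors, for 72 h at 37 °C, 5% CO2.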
# [17] = co-treatment: GSK2194069 100 nM
# [18] = co-treatment: pictilisib 100 nM
Structure (SMILES),IC50 (cell viability) [1] [µM],IC50 (cell viability) [2] [µM],IC50 (cell viability) [3] [µM],IC50 (cell viability) [4] [µM],IC50 (cell viability) [5] [µM],IC50 (cell viability) [6] [µM],IC50 (cell viability) [7] [µM],IC50 (cell viability) [8] [µM],IC50 (cell viability) [9] [µM],IC50 (cell viability) [10] [µM],IC50 (cell viability) [11] [µM],IC50 (cell viability) [12] [µM],IC50 (cell viability) [13] [µM],IC50 (cell viability) [14] [µM],IC50 (cell viability) [15] [µM],area under dose-response curve ([16]; co-treatment: AZD3965 100 nM),area under dose-response curve ([16]; co-treatment: DMSO vehicle),"area under dose-response curve [16, 17]","area under dose-response curve [16, 18]"
Nc1ccn([C@@H]2O[C@H](CO)[C@@H](O)[C@@H]2O)c(=O)n1 [Cytarabine],4.77,0.0585,0.135,0.00472,0.43,0.0478,0.0806,0.364,0.566,0.0389,2.29,0.034,0.0681,0.092,0.116,0.242,0.214,0.216,0.329
C1CCC(C(CC2CCCCN2)C2CCCCC2)CC1.O=C(O)/C=C\C(=O)O (configuration not stated) [Perhexiline],2.55,4.23,3.28,3.34,2.85,3.23,2.66,3.55,2.73,3.63,6.5,3.99,3.43,3.35,3.23,0.133,0.125,0.16,0.198
Cc1coc2c1C(=O)C(=O)c1c-2ccc2c(C)cccc12 [Tanshinone I],> 10,> 10,> 10,> 10,> 10,> 10,> 10,> 10,> 10,> 10,> 10,> 10,> 10,> 10,> 10,< 0.0301,< 0.0301,< 0.0301,< 0.0301
c1ccc2c(c1)OCC(=C1NCCN1)O2 [Idazoxan],> 10,> 10,> 10,> 10,> 10,> 10,> 10,> 10,> 10,> 10,> 10,> 10,> 10,> 10,> 10,< 0.0301,< 0.0301,< 0.0301,< 0.0301
CCOC(=O)[C@@]1(CCCCCCOc2ccc(Cl)cc2)CO1 [Etomoxir],> 10,5.83,> 10,6.76,> 10,> 10,> 10,> 10,> 10,> 10,> 10,> 10,> 10,> 10,> 10,< 0.0301,< 0.0301,< 0.0301,< 0.0301
Cl.OC[C@H]1NC[C@@H](O)[C@@H](O)[C@@H]1O [1-Deoxymannojirimycin hydrochloride],> 10,> 10,> 10,> 10,> 10,> 10,> 10,> 10,> 10,> 10,> 10,> 10,> 10,> 10,> 10,< 0.0301,< 0.0301,< 0.0301,< 0.0301
O=C(O)CCc1ccc(NCc2cccc(Oc3ccccc3)c2)cc1 [GW9508],> 10,> 10,> 10,> 10,> 10,> 10,> 10,> 10,> 10,> 10,> 10,> 10,> 10,> 10,> 10,< 0.0301,< 0.0301,< 0.0301,< 0.0301
Clc1ccc2c(c1Cl)CNCC2,> 10,> 10,> 10,> 10,> 10,> 10,> 10,> 10,> 10,> 10,> 10,> 10,> 10,> 10,> 10,< 0.0301,< 0.0301,< 0.0301,< 0.0301
C[C@]12O[C@H](C[C@]1(O)CO)n1c3ccccc3c3c4c(c5c6ccccc6n2c5c31)CNC4=O [Lestaurtinib],0.848,0.0512,0.0633,0.0201,0.0912,0.0504,0.00461,0.0143,0.00331,0.149,0.188,0.0467,0.139,0.182,0.0227,0.381,0.293,0.335,0.452
O=c1c2ccccc2[se]n1-c1ccccc1 [Ebselen],> 10,> 10,> 10,> 10,> 10,> 10,> 10,> 10,> 10,> 10,> 10,> 10,> 10,> 10,> 10,< 0.0301,< 0.0301,< 0.0301,< 0.0301
Oc1cc(Cl)ccc1Oc1ccc(Cl)cc1Cl [Triclosan],> 10,> 10,> 10,> 10,> 10,> 10,> 10,> 10,> 10,> 10,> 10,> 10,> 10,> 10,> 10,< 0.0301,< 0.0301,< 0.0301,< 0.0301
CCN(CC)CCN(Cc1ccc(-c2ccc(C(F)(F)F)cc2)cc1)C(=O)Cn1c(SCc2ccc(F)cc2)nc(=O)c2c1CCC2 [Darapladib],2.94,2.23,2.59,2.15,2.07,2.63,2.15,2.9,3.36,2.32,2.82,1.98,2.62,1.64,2.42,0.144,0.14,0.167,0.134
Cc1noc2c1-c1ccccc1C(c1ccc(Cl)cc1)=N[C@H]2CC(N)=O [CPI-0610],0.765,1.59,0.5,0.538,0.2,1.52,0.274,0.142,0.146,0.624,0.349,0.422,1.26,0.377,0.135,0.21,0.157,0.168,0.289
COc1c(C)c2c(c(O)c1C/C=C(\C)CCC(=O)O)C(=O)OC2 [Mycophenolic acid],> 10,0.771,2.52,0.679,0.652,1.01,0.183,1.83,0.507,0.289,2.55,0.954,0.333,0.561,2.34,0.0599,< 0.0301,0.0302,0.0317
CN(C)c1nc(O)c2[nH]cnc2n1 [2-Dimethylamino-6-hydroxypurine],> 10,> 10,> 10,> 10,> 10,> 10,> 10,> 10,> 10,> 10,> 10,> 10,> 10,> 10,> 10,< 0.0301,< 0.0301,< 0.0301,< 0.0301
O=C1Nc2ccccc2/C1=C\NCCc1ccc(O)c(O)c1 [AC1NZZMF],> 10,> 10,> 10,> 10,> 10,> 10,> 10,> 10,> 10,> 10,> 10,> 10,> 10,> 10,> 10,< 0.0301,< 0.0301,< 0.0301,< 0.0301
CCCc1nn(C)c2c(O)nc(-c3cc(S(=O)(=O)N4CCN(C)CC4)ccc3OCC)nc12 [Sildenafil],> 10,> 10,> 10,> 10,> 10,> 10,> 10,> 10,> 10,> 10,> 10,> 10,> 10,> 10,> 10,< 0.0301,< 0.0301,< 0.0301,< 0.0301
CCOc1ccc(Cc2cc([C@@H]3O[C@H](CO)[C@@H](O)[C@H](O)[C@H]3O)ccc2Cl)cc1 [Dapagliflozin],> 10,> 10,> 10,> 10,> 10,> 10,> 10,> 10,> 10,> 10,> 10,> 10,> 10,> 10,> 10,< 0.0301,< 0.0301,< 0.0301,< 0.0301
CC(Cc1ccc(O)c(O)c1)C(C)Cc1ccc(O)c(O)c1 (configuration not stated) [Masoprocol],> 10,> 10,> 10,3.66,3.15,> 10,> 10,2.08,3.8,> 10,> 10,> 10,3.42,> 10,6.63,0.12,0.104,0.0826,0.142
Cc1ccc(S(=O)(=O)NC2c3ccccc3Oc3ccccc32)cc1 [AH-7614],> 10,> 10,> 10,> 10,> 10,> 10,> 10,> 10,> 10,> 10,> 10,> 10,> 10,> 10,> 10,< 0.0301,< 0.0301,< 0.0301,< 0.0301
NC(=O)c1ncn([C@@H]2O[C@H](CO)[C@@H](O)[C@H]2O)n1 [Ribavirin],> 10,> 10,> 10,> 10,> 10,> 10,> 10,> 10,> 10,> 10,> 10,> 10,> 10,> 10,> 10,< 0.0301,< 0.0301,< 0.0301,< 0.0301
C[C@]12CC[C@H](O)CC1=CC[C@@H]1[C@@H]2CC[C@]2(C)C(c3cccnc3)=CC[C@@H]12 [Abiraterone],> 10,> 10,> 10,> 10,> 10,> 10,> 10,> 10,> 10,> 10,> 10,> 10,> 10,> 10,> 10,< 0.0301,< 0.0301,< 0.0301,< 0.0301
C[C@H]1O[C@@H](O[C@H]2[C@@H](O)C[C@H](O[C@H]3[C@@H](O)C[C@H](O[C@H]4CC[C@@]5(C)[C@H](CC[C@@H]6[C@@H]5C[C@@H](O)[C@]5(C)[C@@H](C7=CC(=O)OC7)CC[C@]65O)C4)O[C@@H]3C)O[C@@H]2C)C[C@H](O)[C@@H]1O [Digoxin],0.0752,0.0546,0.0453,0.0361,0.0342,0.102,0.034,0.0424,0.0402,0.0555,0.123,0.0647,0.0386,0.0855,0.0639,0.459,0.479,0.423,0.486

# From the supplement of paper PMC8671470
